This passage reports GI50 and TGI results from PubChem BioAssay (NCI).

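Each compound was tested at five concentrations against cells in 96-well plates for 48 hours. The concentration for 50% growth inhibition is given as GI50. The concentration for full growth arrest is given as TGI.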

Test systems include CAKI-1 renal; SF-539 CNS; SK-MEL-2 melanoma; UACC-257 melanoma; HT29 colon; 786-0 renal; A498 renal; NCI-H460 lung; LOX IMVI melanoma; NCI-H522 lung.
Common to all, as to test: growth of human tumour cells (NCI), 48 h

As to `CCCCCCCCCCCCNC(=O)[C@H]1CSC(c2cc3ccccc3s2)N1` (some centres undefined), the GI50 with CAKI-1 renal is 2.09 µM; in the assay with SF-539 CNS, 1.36 µM; in the assay with SK-MEL-2 melanoma, 1.96 µM; with UACC-257 melanoma it was 4.12 µM; in the assay with HT29 colon, 1.74 µM; in the assay on 786-0 renal, 4.6 µM. Besides, the GI50 is 10.2 µM with A498 renal, 1.02 µM in the assay with NCI-H460 lung, 0.534 µM in the assay on LOX IMVI melanoma and 5.11 µM in the assay with NCI-H522 lung. For the same compound, the TGI worked out at 6.4 µM in the assay with CAKI-1 renal; 4.79 µM with SF-539 CNS; 6.49 µM in the assay on SK-MEL-2 melanoma; 8.6 µM in the assay with UACC-257 melanoma; 5.87 µM with HT29 colon; 9.11 µM in the assay on 786-0 renal. Also, the TGI came to 26.3 µM in the assay on A498 renal, 2.5 µM in the assay on NCI-H460 lung, 1.05 µM with LOX IMVI melanoma and 11.1 µM with NCI-H522 lung.
Take `COC(=O)[C@H]1[C@@H](O)[C@@]2(O)c3c(OC)cc(O[C@@H]4O[C@@H]([C@H](O)CO)CO[C@H]4OC)cc3O[C@@]2(c2ccc(OC)cc2)[C@@H]1c1ccccc1`: the GI50 was 0.997 µM in the assay with CAKI-1 renal; 0.00187 µM in the assay with SF-539 CNS; 0.00354 µM in the assay with SK-MEL-2 melanoma; 0.00627 µM in the assay on UACC-257 melanoma; 0.003 µM in the assay on HT29 colon; 0.0282 µM in the assay on 786-0 renal. Moreover, the GI50 in the assay on A498 renal is 0.00537 µM; in the assay on NCI-H460 lung it was 0.004 µM; in the assay with LOX IMVI melanoma, 0.00263 µM; in the assay on NCI-H522 lung it was 0.00344 µM. Besides, the TGI in the assay on CAKI-1 renal is > 1 µM; with SF-539 CNS, 0.00686 µM; in the assay on SK-MEL-2 melanoma it was 0.0158 µM; with UACC-257 melanoma, 0.0451 µM; in the assay with HT29 colon, 0.0142 µM; in the assay on 786-0 renal, 0.127 µM. Moreover, the TGI was 0.0141 µM in the assay with A498 renal, 0.0695 µM in the assay with NCI-H460 lung, 0.00986 µM in the assay on LOX IMVI melanoma and 0.0241 µM in the assay with NCI-H522 lung.
Consider `O=C1Nc2cc(Cl)ccc2N=CC1NC(=O)C(c1ccccc1)c1ccccc1Cl` (centres undefined), for which the TGI with CAKI-1 renal, in the assay with SF-539 CNS, in the assay on SK-MEL-2 melanoma, in the assay with UACC-257 melanoma, in the assay with HT29 colon and with 786-0 renal was > 100 µM in each case. Further, the TGI with A498 renal, in the assay on NCI-H460 lung, with LOX IMVI melanoma and in the assay with NCI-H522 lung was > 100 µM in each case.
As to `Cc1nc2ccccn2c1NC(=O)NNC(=S)Nc1ccc(Br)cc1`, the GI50 was 29.6 µM in the assay with CAKI-1 renal; 22.4 µM in the assay on SF-539 CNS; 77.8 µM in the assay on SK-MEL-2 melanoma; 37.8 µM with UACC-257 melanoma; 24.9 µM in the assay with HT29 colon; 41.7 µM in the assay with 786-0 renal. Moreover, the GI50 in the assay on A498 renal is 32.8 µM; with NCI-H460 lung it was 34.1 µM; in the assay with LOX IMVI melanoma it was 24 µM; in the assay with NCI-H522 lung, 30.1 µM. The TGI with CAKI-1 renal is > 100 µM; in the assay with SF-539 CNS, 55.2 µM; in the assay with SK-MEL-2 melanoma, > 100 µM; with UACC-257 melanoma, > 100 µM; with HT29 colon, 69.8 µM; in the assay on 786-0 renal it was > 100 µM. In addition, the TGI with A498 renal was 88.1 µM; in the assay on NCI-H460 lung it was > 100 µM; in the assay on LOX IMVI melanoma, 67.3 µM; in the assay on NCI-H522 lung, 79.1 µM.
Consider `COCc1c(CO)cnc(C)c1OC1OC(CO)C(O)C(O)C1O` (centres undefined), for which the TGI with CAKI-1 renal, in the assay with SF-539 CNS, in the assay with SK-MEL-2 melanoma, in the assay with UACC-257 melanoma, with HT29 colon and in the assay on 786-0 renal was > 100 µM each time. Further, the TGI with A498 renal, in the assay on NCI-H460 lung, in the assay with LOX IMVI melanoma and with NCI-H522 lung was > 100 µM throughout.
Regarding `O=Nc1ccc(O)c2ccccc12`, the GI50 with CAKI-1 renal is 1.63 µM; in the assay with SF-539 CNS it was 2.11 µM; with SK-MEL-2 melanoma, 1.7 µM; in the assay on UACC-257 melanoma it was 1.63 µM; with HT29 colon, 1.86 µM; in the assay on 786-0 renal it was 4.1 µM. Further, the GI50 was 15.1 µM in the assay on A498 renal, 3.66 µM in the assay on NCI-H460 lung, 0.668 µM with LOX IMVI melanoma and 1.6 µM in the assay with NCI-H522 lung. Also, the TGI in the assay on CAKI-1 renal worked out at 4.03 µM; in the assay with SF-539 CNS, 4.05 µM; in the assay on SK-MEL-2 melanoma, 3.72 µM; in the assay on UACC-257 melanoma, 3.23 µM; with HT29 colon, 5.71 µM; in the assay on 786-0 renal, 12.6 µM. The TGI is 28.6 µM in the assay on A498 renal, 13.5 µM with NCI-H460 lung, 2.28 µM in the assay on LOX IMVI melanoma and 3.48 µM in the assay with NCI-H522 lung.
Turning to `COc1ccccc1-c1cc(/C=C2\C(=O)Nc3ncc(Br)cc32)cc(Br)c1O`, the GI50 was 10.1 µM with CAKI-1 renal; > 19.3 µM in the assay on SF-539 CNS; 8.89 µM with SK-MEL-2 melanoma; 16.4 µM in the assay with UACC-257 melanoma; 18.9 µM in the assay with HT29 colon; 12.2 µM with 786-0 renal. Moreover, the GI50 with A498 renal is 3.73 µM; in the assay with NCI-H460 lung it was 11.6 µM; in the assay with LOX IMVI melanoma, 10.5 µM; with NCI-H522 lung, 6.1 µM. The TGI in the assay on CAKI-1 renal, with SF-539 CNS, with SK-MEL-2 melanoma, with UACC-257 melanoma, in the assay on HT29 colon and in the assay with 786-0 renal was > 25 µM in each case. Besides, the TGI with A498 renal is 19.5 µM; in the assay on NCI-H460 lung, > 25 µM; with LOX IMVI melanoma it was > 25 µM; in the assay on NCI-H522 lung, > 23.3 µM.
As for `CC1=C(C(=O)Nc2ccccc2C)C(c2ccc(C3C(C(=O)Nc4ccccc4C)=C(C)NC(C)=C3C(=O)Nc3ccccc3C)cc2)C(C(=O)Nc2ccccc2C)=C(C)N1`, the TGI is 22.7 µM in the assay with CAKI-1 renal; 8.57 µM in the assay on SF-539 CNS; 31.6 µM in the assay with SK-MEL-2 melanoma; 9.84 µM with UACC-257 melanoma; 4.62 µM with HT29 colon; 17.3 µM with 786-0 renal. Besides, the TGI was found to be 29 µM in the assay with A498 renal, 24.9 µM with NCI-H460 lung, 3.63 µM in the assay with LOX IMVI melanoma and 3.72 µM in the assay on NCI-H522 lung.
Take `COc1cccc(Cn2c(-c3nonc3N)nc3ccccc32)c1`: the GI50 was 0.404 µM with CAKI-1 renal; 0.237 µM in the assay on SF-539 CNS; 0.353 µM with SK-MEL-2 melanoma; 0.314 µM in the assay on UACC-257 melanoma; 0.345 µM with HT29 colon; 0.569 µM with 786-0 renal. Also, the GI50 with A498 renal is 0.0532 µM; in the assay on NCI-H460 lung, 0.378 µM; with LOX IMVI melanoma, 0.547 µM; with NCI-H522 lung it was 0.245 µM. The TGI was > 100 µM in the assay on CAKI-1 renal; 0.696 µM in the assay on SF-539 CNS; 15.4 µM in the assay with SK-MEL-2 melanoma; > 100 µM in the assay on UACC-257 melanoma; > 100 µM in the assay on 786-0 renal; 0.696 µM with A498 renal. Also, the TGI with NCI-H460 lung is > 34.6 µM; in the assay on LOX IMVI melanoma, > 100 µM; with NCI-H522 lung, 0.688 µM.
